Measured values taken from PMC7070167, “Cell‐permeable high‐affinity tracers for Gq proteins provide structural insights, reveal distinct binding kinetics and identify small molecule inhibitors” (British Journal of Pharmacology, 2020).
Like-named read-outs stand apart in the source and are kept apart here. *1 amine or outer side, *2 acyl side, *3 side chain or, on linkers, in order; H or OH if unused. Where a SMILES comes first, the peptide text is derived from it. Bridges are numbered along the chain shown (N, C = ends). [ ]: non-standard residue; d: D form. The star is where a group is joined. Leu(3R-O(AcLeu(3R-OH))) = CC(=O)N[C@H](C(=O)O[C@H](C(C)C)[C@H](N)C(=O)O)[C@H](O)C(C)C; Leu(3R-OH,Nα-propionyl) = CCC(=O)N[C@H](C(=O)*)[C@H](O)C(C)C; X1 = CC(C)[C@@H](O[*:3])[C@H](N[*:1])C(=O)[*:2]; NMeT = CN[C@H](C(=O)O)[C@@H](C)O; dPhLac = O=C(O)[C@H](O)Cc1ccccc1; NMeA = CN[C@@H](C)C(=O)O; NMeDha = C=C(NC)C(=O)O

Target: T1, mouse Gαq (Mus musculus, UniProt P21279, D130A/E125D/N126V/V129Y/Y128D)
T1 construct: expressed in transfected cells; membrane preparations
T1 sequence (P21279 1-359 E125D/N126V/Y128D/V129Y/D130A): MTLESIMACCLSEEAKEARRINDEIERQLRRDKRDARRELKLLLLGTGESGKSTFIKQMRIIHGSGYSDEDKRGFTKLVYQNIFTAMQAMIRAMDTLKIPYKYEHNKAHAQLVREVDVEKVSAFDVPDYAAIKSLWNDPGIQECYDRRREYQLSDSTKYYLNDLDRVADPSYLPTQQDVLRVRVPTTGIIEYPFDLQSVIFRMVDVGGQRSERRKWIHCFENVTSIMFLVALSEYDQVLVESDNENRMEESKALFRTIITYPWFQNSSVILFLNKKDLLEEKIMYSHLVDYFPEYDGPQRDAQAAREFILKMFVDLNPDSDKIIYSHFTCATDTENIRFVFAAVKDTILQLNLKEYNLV
Assay: Competition binding at membranes of HEK-CRISPR-Cas9-Gαq-KO cells expressing Gαq
Experimental: cDNAs encoding for the α‐subunits of the human G11, G14, G15 and mouse Gq guanine nucleotide‐binding proteins in a pcDNA3.1(+) vector were obtained from E. Kostenis. CRISPR/Cas9‐Gαq‐knockout (KO) HEK293 cells were from M. Yamaguchi. The protein sequences of the human and mouse Gαq proteins differ only by one amino acid in position 171 (alanine in human and serine in mouse). […]. After 16 hr, 3 ml of DMEM containing 10% FBS, 1% of a penicillin/streptomycin solution (final concentrations: penicillin = 100 U·ml^−1, streptomycin = 0.1 mg·ml^−1), and sodium butyrate (5 mM) was added to the packaging cells. They were kept at 32°C and 5% CO2 for 48 hr, during which the viral vectors containing the receptor sequence were produced and released into the surrounding medium. These were harvested, filtered ([…] filter pore diameter), and added to HEK293 cells that had previously been modified via CRISPR/Cas9 genome editing to lack Gαq expression. Polybrene solution (6 μl, 4 mg·ml^−1 in H2O, filtered) was added. After 2.5 hr, the virus‐containing medium was discarded, and DMEM supplemented with 10% FBS and 1% of a penicillin/streptomycin solution (final concentrations: penicillin = 100 U·ml^−1, streptomycin = 0.1 mg·ml^−1) was given to the cells. These were incubated for 2 days, followed by selection of successfully transfected cells with geneticin resistance by adding G418 (200 μg·ml^−1) to the medium. The cells were cultured in these media at 37°C and 10% CO2 until membrane preparations were generated.
Recombinant HEK cells were cultured to 70% of confluence. The culture medium was discarded, and cells were washed once with approximately 5 ml of PBS. Dishes were stored at −20°C until further use. After defrosting, cells were detached with a rubber scraper after adding 5‐mM Tris–HCl, 2‐mM EDTA, pH 7.4. The collected cell suspension was homogenized using an Ultra‐Turrax® for 1 min at a speed level of 4. The cell suspension was transferred into tubes and centrifuged for 10 min at 1,000 g, 4°C. The pellet (P1) was discarded, and the supernatant was centrifuged for 45 min at 48,400 g, 4°C. The resulting supernatant was discarded, and the pellet (P2) was resuspended in 50‐mM Tris–HCl, pH 7.4, and centrifuged again for 45 min at 48,400 g, 4°C. This step was repeated once again, and the suspension was subsequently homogenized using an Ultra‐Turrax® for 1 min at a speed level of 4 (IKA Laborechnik), transferred into cryovials, and stored at −80°C (for up to several months). […]
The experiments were performed in 50‐mM Tris–HCl buffer, pH 7.4. […] Non‐specific binding was determined in the presence of 5‐μM FR. […] Luma Safe® scintillation cocktail (2.5 ml) was added, and after 6 hr of incubation, the samples were counted for 1 min each, using a liquid scintillation counter (counting efficiency 53%). […]

| Structure (SMILES) | IC50 [nM] | Pseudo-Bmax ± SD (FR versus [³H]PSB-15900 (5 nM), 37°C, Gq) [pmol/mg] | Pseudo-Bmax ± SD (YM versus [³H]PSB-16254 (5 nM), 37°C, Gq) [pmol/mg] | IC50 (YM versus [³H]PSB-16254 (5 nM), 37°C, Gq, read-out: pIC50 ± SD (converted)) [nM] |
| --- | --- | --- | --- | --- |
| C=C1C(=O)N[C@@H](C)C(=O)N(C)[C@@H](C)C(=O)N[C@@H]([C@H](OC(=O)[C@@H](NC(=O)CC)[C@H](O)C(C)C)C(C)C)C(=O)N(C)[C@@H]([C@@H](C)OC)C(=O)O[C@H](C(C)C)[C@H](NC(C)=O)C(=O)O[C@H](Cc2ccccc2)C(=O)N1C [FR, FR900359] (Ac-[X1][dPhLac][NMeDha]A[NMeA][X1](Leu(3R-OH,Nα-propionyl))[NMeT](Me); ester 1-C) | 13.2 | 6.09 ± 0.59 |  |  |
| C=C1C(=O)N[C@@H](C)C(=O)N(C)[C@@H](C)C(=O)N[C@@H]([C@H](OC(=O)[C@@H](NC(C)=O)[C@H](O)C(C)C)C(C)C)C(=O)N(C)[C@@H]([C@@H](C)OC)C(=O)O[C@H](C)[C@H](NC(C)=O)C(=O)O[C@H](Cc2ccccc2)C(=O)N1C [YM, YM‐254890] (Ac-T[dPhLac][NMeDha]A[NMeA][Leu(3R-O(AcLeu(3R-OH)))][NMeT](Me); ester 1-C) |  |  | 6.04 ± 1.43 | 6.17 |
